Values quoted from earlier work as cited in patent publication US20040208853A1, “Method and device for sanitation using bacteriophages” (priority 2000, published 2004).

Test system: bacterial counts on fresh-cut fruits
Settings: most effective chemical sanitizer

SMILES: OO [hydrogen peroxide]
- maximum reduction rate in bacterial counts on fresh-cut fruits: 1.3 logs
